According to US20100298252A1, “METHODS AND COMPOSITIONS FOR OPHTHALMIC TREATMENT OF FUNGAL AND BACTERIAL INFECTIONS” (priority 2004, published 2010):

Columns and labels:
Assay type in all cases: cell-based
[1] = system: Enterococcus faecalis; assay: MIC and FIC index, microtiter checkerboard / broth dilution; conditions: Ent. faecalis; antibiotic alone
Protocol: (§1) Agents and Chem. 210-217. (1967) and Sparks et al., Vet. Res. Comm. 18, 241-249 (1994), incorporated herein by reference in their entireties. […] Then 0.05 ml of an 18-hour old culture of a test organism, containing 10^6 colony-forming units (CFU)/ml, was added to each well. Controls for the culture and media were included in each plate. Plates were covered and incubated at 37° Celsius for 18-24 hours. […] To generate isobolograms, FICs of the two test solutions were plotted individually on the x-axis and y-axis to determine the effect of combining the two test solutions on bacterial growth. A line that curves away from, the zero point and the coordinates indicates antagonism. […] A numerical score or fractional inhibitory concentration (FIC) index was determined. The FIC index is equal to the sum of the values of FIC for the individual drugs: […] Am. Soc. Microbiol. Williams and Wilkins, Baltimore 1970), incorporated herein by reference in its entirety. […] Ps. aeruginosa, and Ent. faecalis.

[2] = system: Pseudomonas aeruginosa; assay: as above; conditions: Ps. aeruginosa; antibiotic alone
Protocol: as §1

[3] = system: Staphylococcus aureus; assay: as above; conditions: Staph. aureus; antibiotic alone
Protocol: as §1

[4] = system: Enterococcus faecalis; assay: Antibiotic resistance profile by disc diffusion; parameters: key: R = resistant; I = intermediate; S = sensitive; conditions: disc diffusion on MHA
Protocol: (§2) The organisms of this study were isolated from human burn patients. They included strains of methicillin resistant Staphylococcus aureus, and vancomycin resistant strains of Pseudomonas aeruginosa and Enterococcus faecalis. The bacterial isolates were propagated in or on Brain Heart Infusion broth (BHI), Mueller-Hinton Broth (MHB), blood agar (BA), Mueller-Hinton agar (MHA), enterococcus agar (EA), or 2× nutrient agar (2×NA).
(§3) Antibiotic resistance profiles were determined by the disc diffusion method on MHA (5).

[5] = system: Pseudomonas aeruginosa; assay: Antibiotic resistance profile by disc diffusion; parameters: key: R = resistant; I = intermediate; S = sensitive; conditions: disc diffusion on MHA
Protocol: as §2, §3

[6] = system: Staphylococcus aureus; assay: Antibiotic resistance profile by disc diffusion; parameters: key: R = resistant; I = intermediate; S = sensitive; conditions: disc diffusion on MHA
Protocol: as §2, §3

Compound | MIC Individually Administered, antibiotic [1] | MIC Individually Administered, antibiotic [2] | MIC Individually Administered, antibiotic [3] | Antibiotic resistance profile [4] | Antibiotic resistance profile [5] | Antibiotic resistance profile [6]
CN(C)[C@@H]1C(O)=C(C(N)=O)C(=O)[C@@]2(O)C(O)=C3C(=O)c4c(O)cccc4[C@@](C)(O)[C@H]3[C@H](O)[C@@H]12 [Oxytetracycline, oxytetracycline] | 50 µg/mL | 3 µg/mL | 0.1 µg/mL |  |  | 
CC1(C)S[C@@H]2[C@H](NC(=O)[C@H](N)c3ccccc3)C(=O)N2[C@H]1C(=O)O [Ampicillin, ampicillin] | 1 µg/mL | 490 µg/mL | 240 µg/mL | S | R | R^B
gentamicin [Gm] |  |  |  | R | I | S
NC[C@H]1O[C@H](O[C@H]2[C@H](O)[C@@H](O[C@H]3O[C@H](CO)[C@@H](O)[C@H](N)[C@H]3O)[C@H](N)C[C@@H]2N)[C@H](O)[C@@H](O)[C@@H]1O [K, kanamycin] |  |  |  | R | R | R
CN(C)[C@@H]1C(O)=C(C(N)=O)C(=O)[C@@]2(O)C(O)=C3C(=O)c4c(O)cccc4[C@@](C)(O)[C@H]3C[C@@H]12 [Te, tetracycline] |  |  |  | R | R | S
NCC[C@H](O)C(=O)N[C@@H]1C[C@H](N)[C@@H](O[C@H]2O[C@H](CN)[C@@H](O)[C@H](O)[C@H]2O)[C@H](O)[C@H]1O[C@H]1O[C@H](CO)[C@@H](O)[C@H](N)[C@H]1O [Amikacin, amikacin] | 2000 µg/mL | 1 µg/mL | 120 µg/mL |  |  | 
O=C(N[C@H](CO)[C@H](O)c1ccc([N+](=O)[O-])cc1)C(Cl)Cl [Chloramphenicol, chloramphenicol] | 400 µg/mL | 12500 µg/mL | 390 µg/mL | R | R | I
